Test results reported in patent US10689377B2 (Mirati Therapeutics, Inc., priority 2017, dated 2020).

Each molecule was assayed against KRas G12C (Homo sapiens, UniProt P01116, G12C) (assay: Cellular inhibition of KRas G12C measured by Phospho-ERK in NCI-H358 cells). Conditions: pERK(Thr202/Tyr204) normalized with GAPDH, NCI-H358 cells, 3 hours; read-out: IC50.
Assay type: cell-based
In short: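 Following 8-12 h attachment, NCI-H358 cells got serially diluted compound (0.5% DMSO) for 3 hours. Cells were then fixed, permeabilized with cold methanol, and stained for pERK(Thr202/Tyr204) and GAPDH. Ratios were converted to percent of DMSO control, with IC50 obtained by four-parameter regression.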

Sequence of KRas G12C (P01116 1-188 isoform P01116-2 G12C): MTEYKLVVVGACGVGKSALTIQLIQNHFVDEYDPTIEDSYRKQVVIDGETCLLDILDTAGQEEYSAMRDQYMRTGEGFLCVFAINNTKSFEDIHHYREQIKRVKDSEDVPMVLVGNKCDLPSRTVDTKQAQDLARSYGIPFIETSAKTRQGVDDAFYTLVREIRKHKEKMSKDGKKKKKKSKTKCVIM

Row | SMILES | IC50
1 | C=CC(=O)N1CCN(c2nc(OC[C@@H]3CCCN3C)nc3c2CCN(c2ccccc2C(F)(F)F)C3)C[C@@H]1CC#N [Example 379, 2-((S)-1-acryloyl-4-(2-(((S)-1-methylpyrrolidin-2-yl)methoxy)-7-(2-(trifluoromethyl)phenyl)-5,6,7,8-tetrahydropyrido[3,4-d]pyrimidin-4-yl)piperazin-2-yl)acetonitrile] | 0.1 to 1000 nM
2 | C=CC(=O)N1CCN(c2nc(OC[C@@H]3CCCN3CCOC)nc3c2CCN(c2cccc4ccccc24)C3)CC1CC#N (stereo partly drawn) [Example 380, 2-(1-acryloyl-4-(2-(((S)-1-(2-methoxyethyl)pyrrolidin-2-yl)methoxy)-7-(naphthalen-1-yl)-5,6,7,8-tetrahydropyrido[3,4-d]pyrimidin-4-yl)piperazin-2-yl)acetonitrile] | 0.1 to 1000 nM
3 | C=CC(=O)N1CCN(c2nc(OC[C@@H]3C[C@@H](OC)CN3C)nc3c2CCN(c2cccc4ccccc24)C3)CC1CC#N (stereo partly drawn) [Example 381, 2-(1-acryloyl-4-(2-(((2S,4R)-4-methoxy-1-methylpyrrolidin-2-yl)methoxy)-7-(naphthalen-1-yl)-5,6,7,8-tetrahydropyrido[3,4-d]pyrimidin-4-yl)piperazin-2-yl)acetonitrile] | 0.1 to 1000 nM
4 | C=CC(=O)N1CCN(c2nc(OC[C@@H]3CCCN3C)nc3c2CCN(c2cncc(F)c2C(F)(F)F)C3)C[C@@H]1CC#N [Example 383, 2-((S)-1-acryloyl-4-(7-(5-fluoro-4-(trifluoromethyl)pyridin-3-yl)-2-(((S)-1-methylpyrrolidin-2-yl)methoxy)-5,6,7,8-tetrahydropyrido[3,4-d]pyrimidin-4-yl)piperazin-2-yl)acetonitrile] | 0.1 to 1000 nM
5 | C=CC(=O)N1CCN(c2nc(OC[C@@H]3C[C@@H](F)CN3C)nc3c2CCN(c2cncc(F)c2C(F)(F)F)C3)C[C@@H]1CC#N [Example 384, 2-((S)-1-acryloyl-4-(2-(((2S,4R)-4-fluoro-1-methylpyrrolidin-2-yl)methoxy)-7-(5-fluoro-4-(trifluoromethyl)pyridin-3-yl)-5,6,7,8-tetrahydropyrido[3,4-d]pyrimidin-4-yl)piperazin-2-yl)acetonitrile] | 0.1 to 1000 nM
6 | C=CC(=O)N1CCN(c2nc(OC[C@@H]3CCCN3C)nc3c2CCN(c2cncc(Cl)c2C(F)(F)F)C3)C[C@@H]1CC#N [Example 385, 2-((S)-1-acryloyl-4-(7-(5-chloro-4-(trifluoromethyl)pyridin-3-yl)-2-(((S)-1-methylpyrrolidin-2-yl)methoxy)-5,6,7,8-tetrahydropyrido[3,4-d]pyrimidin-4-yl)piperazin-2-yl)acetonitrile] | 0.1 to 1000 nM
7 | C=CC(=O)N1CCN(c2nc(OC[C@@H]3C[C@@H](F)CN3C(C)C)nc3c2CCN(c2cncc(F)c2C(F)(F)F)C3)C[C@@H]1CC#N [Example 386, 2-((S)-1-acryloyl-4-(2-(((2S,4R)-4-fluoro-1-isopropylpyrrolidin-2-yl)methoxy)-7-(5-fluoro-4-(trifluoromethyl)pyridin-3-yl)-5,6,7,8-tetrahydropyrido[3,4-d]pyrimidin-4-yl)piperazin-2-yl)acetonitrile] | 0.1 to 1000 nM
8 | C=CC(=O)N1CCN(c2nc(OC[C@@H]3CCCN3C)nc3c2CCN(c2cncc(Cl)c2C)C3)C[C@@H]1CC#N [Example 387, 2-((S)-1-acryloyl-4-(7-(5-chloro-4-methylpyridin-3-yl)-2-(((S)-1-methylpyrrolidin-2-yl)methoxy)-5,6,7,8-tetrahydropyrido[3,4-d]pyrimidin-4-yl)piperazin-2-yl)acetonitrile] | 0.1 to 1000 nM
9 | C=CC(=O)N1CCN(c2nc(OC[C@@H]3CCCN3C)nc3c2CCN(c2cccc(F)c2C)C3)C[C@@H]1CC#N [Example 388, 2-((S)-1-acryloyl-4-(7-(3-fluoro-2-methylphenyl)-2-(((S)-1-methylpyrrolidin-2-yl)methoxy)-5,6,7,8-tetrahydropyrido[3,4-d]pyrimidin-4-yl)piperazin-2-yl)acetonitrile] | 0.1 to 1000 nM
10 | CC#CC(=O)N1CCN(c2nc(OC[C@@H]3CCCN3C)nc3c2CCN(c2cccc(C)c2C)C3)C[C@@H]1CC#N [Example 389, 2-((S)-1-(but-2-ynoyl)-4-(7-(2,3-dimethylphenyl)-2-(((S)-1-methylpyrrolidin-2-yl)methoxy)-5,6,7,8-tetrahydropyrido[3,4-d]pyrimidin-4-yl)piperazin-2-yl)acetonitrile] | > 1000 nM
11 | C=CC(=O)N1CCN(c2nc(OC[C@@H]3[C@@H](O)CCN3C)nc3c2CCN(c2cccc4ccccc24)C3)C[C@@H]1CC#N [Example 390, 2-((S)-1-acryloyl-4-(2-(((2R,3S)-3-hydroxy-1-methylpyrrolidin-2-yl)methoxy)-7-(naphthalen-1-yl)-5,6,7,8-tetrahydropyrido[3,4-d]pyrimidin-4-yl)piperazin-2-yl)acetonitrile] | 0.1 to 1000 nM
12 | CC#CC(=O)N1CCN(c2nc(OC[C@@H]3CCCN3C)nc3c2CCN(c2cccc4cccc(Cl)c24)C3)C[C@@H]1CC#N [Example 391, 2-((S)-1-(but-2-ynoyl)-4-(7-(8-chloronaphthalen-1-yl)-2-(((S)-1-methylpyrrolidin-2-yl)methoxy)-5,6,7,8-tetrahydropyrido[3,4-d]pyrimidin-4-yl)piperazin-2-yl)acetonitrile] | 0.1 to 1000 nM
13 | C=CC(=O)N1CCN(c2nc(OC[C@@H]3CCCN3C)nc3c2CCN(c2cccc(C)c2C)C3)C[C@@H]1CC#N [Example 394, 2-((S)-1-acryloyl-4-(7-(2,3-dimethylphenyl)-2-(((S)-1-methylpyrrolidin-2-yl)methoxy)-5,6,7,8-tetrahydropyrido[3,4-d]pyrimidin-4-yl)piperazin-2-yl)acetonitrile] | 0.1 to 1000 nM
14 | C=CC(=O)N1CCN(c2nc(OC[C@]3(C)CCCN3C)nc3c2CCN(c2cccc4ccccc24)C3)CC1CC#N (stereo partly drawn) [Example 395, 2-(1-acryloyl-4-(2-(((S)-1,2-dimethylpyrrolidin-2-yl)methoxy)-7-(naphthalen-1-yl)-5,6,7,8-tetrahydropyrido[3,4-d]pyrimidin-4-yl)piperazin-2-yl)acetonitrile] | 0.1 to 1000 nM
15 | C=CC(=O)N1CCN(c2nc(OC[C@@H]3CCCN3CC3CC3)nc3c2CCN(c2cccc4ccccc24)C3)CC1CC#N (stereo partly drawn) [Example 396, 2-(1-acryloyl-4-(2-(((S)-1-(cyclopropylmethyl)pyrrolidin-2-yl)methoxy)-7-(naphthalen-1-yl)-5,6,7,8-tetrahydropyrido[3,4-d]pyrimidin-4-yl)piperazin-2-yl)acetonitrile] | 0.1 to 1000 nM
16 | C=CC(=O)N1CCN(c2nc(OCC(C)(C)N(C)C)nc3c2CCN(c2cccc4ccccc24)C3)CC1CC#N (centres unmarked) [Example 397, 2-(1-acryloyl-4-(2-(2-(dimethylamino)-2-methylpropoxy)-7-(naphthalen-1-yl)-5,6,7,8-tetrahydropyrido[3,4-d]pyrimidin-4-yl)piperazin-2-yl)acetonitrile] | 0.1 to 1000 nM
17 | C=CC(=O)N1CCN(c2nc(OC[C@@H]3CCCN3CC(=O)N(C)C)nc3c2CCN(c2cccc4ccccc24)C3)CC1CC#N (stereo partly drawn) [Example 398, 2-((2S)-2-(((4-(4-acryloyl-3-(cyanomethyl)piperazin-1-yl)-7-(naphthalen-1-yl)-5,6,7,8-tetrahydropyrido[3,4-d]pyrimidin-2-yl)oxy)methyl)pyrrolidin-1-yl)-N,N-dimethylacetamide] | 0.1 to 1000 nM
